Experiments:
[1] = test system: gram-positive and gram-negative bacteria, plus fungi and yeasts; conditions: see list in U.S. Pat. Nos. 6,187,327 and 6,517,854; cited from earlier work
[2] = test system: bacteria on skin surfaces; assay: Persistence of bacterial reduction on skin surfaces; assay type: in vivo
Description: It has been discovered that incorporation of at least one of the aforementioned antimicrobial agents in a formulation comprised of a Surfactant Phase, and a Wax Phase result in a product which is particularly effective in preventing cross-contamination of pathogenic microorganisms in the workplace. […] It is applicable to any area of intact skin, and will kill pathogenic bacteria on contact and remain effective for extended periods of time. The mechanism of microbicidal action of these antibacterial agents is thought to be due to the disruption of intermolecular actions of the microbes.

For `Oc1cc(Cl)ccc1Oc1ccc(Cl)cc1Cl` [TRICLOSAN, 2,4,4′-trichloro-2′-hydroxydiphenyl ether], the efficacy against microorganisms [1] is listed as “demonstrated efficacy” and the “period for which the incidence of bacteria on skin surfaces is significantly reduced” value [2] is listed as 3 to 4 h.

Source: US20080044479A1, “Antimicrobial sanitizing formulations with skin protection properties” (priority 2006, published 2008)
